According to ChEMBL document CHEMBL2157926, “Peptoid ligands that bind selectively to phosphoproteins” (Bioorg Med Chem Lett, 2011):
Activity calls are given as the source filed them. The rule behind the calls is not given here. Non-standard residues stand in square brackets, D forms with d. Residues, ends and D or L forms follow the SMILES beside them. Gly(N-(CH2)3N-pyrrolidone) = O=C(O)CNCCCN1CCCC1=O; N(4-hydroxyphenethyl)Gly = O=C(O)CNCCc1ccc(O)cc1; NFurfurylGly = O=C(O)CNCc1ccco1; Nleu = CC(C)CNCC(=O)O; Nlys = NCCCCNCC(=O)O; Nme = COCCNCC(=O)O

Experiments:
[1] = target: T1, Bromodomain-containing protein 4 (Homo sapiens, UniProt O60885); assay: Binding affinity to modified phosphorylated human BRD4 phosphorylation-dependent interaction domain (598-785) expressed in Sf9 cells assessed as red fluorescence by SDS-PAGE method based one-bead binding assay
[2] = target: T1, Bromodomain-containing protein 4; assay: Binding affinity to modified phosphorylated human BRD4 phosphorylation-dependent interaction domain (598-785) using fluorescein 5-maleimide by fluorescence polarization method
[3] = target: T1, Bromodomain-containing protein 4; assay: Binding affinity to Flag tagged phosphorylated human BRD4 phosphorylation-dependent interaction domain (287-530) assessed as formation of cross-linking products at 0.5 uM in presence of sodium periodate using Neutravedin HRP by SDS-PAGE method
[4] = target: T1, Bromodomain-containing protein 4; assay: Binding affinity to Flag tagged phosphorylated human BRD4 phosphorylation-dependent interaction domain (287-530) assessed as formation of cross-linking products at 0.1 uM in presence of sodium periodate using Neutravedin HRP by SDS-PAGE method
[5] = target: T1, Bromodomain-containing protein 4; assay: Binding affinity to Flag tagged phosphorylated human BRD4 phosphorylation-dependent interaction domain (287-530) assessed as formation of cross-linking products at 0.5 uM in absence of sodium periodate using Neutravedin HRP by SDS-PAGE method
[6] = target: T1, Bromodomain-containing protein 4; assay: Binding affinity to modified phosphorylated human BRD4 phosphorylation-dependent interaction domain (287-530) expressed in Sf9 cells assessed as formation of cross-linking products in presence of sodium periodate using Neutravedin HRP by Western blot method
[7] = target: T1, Bromodomain-containing protein 4; assay: Binding affinity to modified phosphorylated human BRD4 phosphorylation-dependent interaction domain (287-530) expressed in Sf9 cells assessed as formation of cross-linking products in absence of sodium periodate using Neutravedin HRP by Western blot method

SMILES | Activity [1] | Kd [2] | Activity [3] | Activity [4] | Activity [5] | Activity [6] | Activity [7]
COCCN(CC(=O)N(CCCCN)CC(=O)N(CCCCN)CC(N)=O)C(=O)CN(CCCCN)C(=O)CN(CCc1ccc(O)cc1)C(=O)CNCC(C)C (H-[Nleu][N(4-hydroxyphenethyl)Gly][Nlys][Nme][Nlys][Nlys]-NH2) | inactive | 50 µM |  |  |  |  | 
COCCN(CC(=O)N(CCCCN)CC(=O)N(CCCCN)CC(=O)NC(Cc1ccc(O)c(O)c1)C(=O)N[C@H](CCC(=O)NCCCOCCOCCOCCCNC(=O)CCCC[C@@H]1SC[C@@H]2NC(=O)N[C@@H]21)C(N)=O)C(=O)CN(CCCCN)C(=O)CN(CCc1ccc(O)cc1)C(=O)CNCC(C)C (stereo partly drawn) |  |  | Active | inactive | inactive | Active | inactive
CC(C)CN(CC(=O)N(CCCCN)CC(=O)N(CC(=O)N(CCCCN)CC(=O)N(CCCCN)CC(N)=O)Cc1ccco1)C(=O)CNCCCN1CCCC1=O (H-[Gly(N-(CH2)3N-pyrrolidone)][Nleu][Nlys][NFurfurylGly][Nlys][Nlys]-NH2) | Active |  |  |  |  |  | 
